One assay has as its system Aβ42. Put plainly: Aβ42 IC50 assay (SHSYSY-APP cell-based screening, UCSD sandwich Aβ42 ELISA). The essentials: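 SHSY5Y-APP cells; secreted Aβ42 quantified by sandwich ELISA to give IC50. Each compound run twice in triplicate on sequential days. Values accepted only when the two runs agree within 3-fold.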
(In general: In an ELISA, binding on a coated surface is turned into a signal by an enzyme label.)

In the next assay the test system is Notch processing. The assay can be described thus: Notch processing in transfected H4-APP751 cells (Western blot, Myc antibody, NICD). It counts as cell-based, human. To be noted: H4-APP751 cells transfected with the Notch NδED construct, 40 nM, 200 nM, 1000 nM, and 5000 nM, 24 hrs. An excerpt:
Cells were harvested 48 hrs post transfection and applied to Western blotting analysis. Myc antibody was utilized to assess the NAED and NICD tagged with Myc on their N-termini. β-Actin was utilized as the loading control.
Cells were harvested 48 hrs post transfection and subjected to Western blotting analysis. Myc antibody was utilized to assess the NδED and NICD tagged with Myc on their N-termini.
Stable H4 human neuroglioma cells over-expressing human APP751, or H4-APP751 cells, were transfected with the NAE construct, and then treated with different concentrations SGSM Compound 1 (Lanes 1-6) or DAPT (Lanes 7-10) for another 24 hrs and are shown in FIG. 9. Cells were harvested 48 hrs post transfection and applied to Western blotting analysis. Myc antibody was utilized to assess the NAED and NICD tagged with Myc on their N-termini β-Actin was utilized as the loading control.
Stably-transfected H4 human neuroglioma cells over-expressing human APP751 (H4-APP751) cells, were transfected with the Notch NδED construct, and then treated with vehicle, or different doses of GSMs (40 nM, 200 nM, 1000 nM, and 5000 nM) for 24 hrs. Cells were harvested 48 hrs post transfection and subjected to Western blotting analysis.
(In western blotting, separated proteins are transferred to a membrane and probed.)

“Also recorded” adds a separate entry of the source.

As usually defined, the IC50 is the point on the concentration scale where inhibition reaches its midpoint. Lower therefore signals higher potency. The compound `COc1nc(-c2cc(C)c(N[C@@H](C)c3cc(F)cc(F)c3)nn2)ccc1-n1cnc(C)c1` [Example 46, (S)—N-(1-(3,5-difluorophenyl)ethyl)-6-(6-methoxy-5-(4-methyl-1H-imidazol-1-yl)pyridin-2-yl)-4-methylpyridazin-3-amine] displayed a concentration for half-maximal inhibition (IC50) with Aβ42 of 4.1 nM. Besides, the “Notch processing (NICD levels, Western blot)” value with Notch processing is listed as “did not decrease the NICD levels at all concentrations studied; also recorded: not inhibit Notch processing”.

(Values after patent US10472346B2, “Potent gamma-secretase modulators” (The General Hospital Coporation, priority 2014, dated 2019).)
